Source: US8901337B2, “Metal complexes having dual histone deacetylase inhibitory and DNA-binding activity” (Royal College of Surgeons in Ireland, priority 2009, dated 2014)
Where two headings read alike, the source gives them in different places.

How the values were obtained:
[1] = system: non-tumorigenic human dermal fibroblast cell line (NHDF); test: MTS in vitro cytotoxicity, NHDF; format: cell-based; details: 72 hours; for IC50: MTS
Description: In addition Normal Neonatal Human Dermal Fibroblast, NHDF, cells were cultured in Fibroblast Basal Medium (FBM®, Clonetics, Walkersville, USA) supplemented with hFGF-B, insulin, 5% FBS and gentamicin/amphotericin-B (FGM®-2 SingleQuots, Clonetics, Walkersville, USA).
(§1) All cells were kept in a humidified atmosphere with 5% CO2 at 37° C.; cells from confluent monolayers were removed from flasks by trypsin/EDTA solution and their viability determined by the trypan blue exclusion test.
(§2) Cell growth was determined by the [3-(4,5-dimethylthiazol-2-yl)-5-(3-carboxymethoxyphenyl)-2-(4-sulfophenyl)-2H-tetrazolium, inner salt, (MTS test, Promega, Southampton, UK), a colorimetric assay based on the ability of the viable cells to reduce a soluble yellow tetrazolium salt to blue formazan. 10,000 ovarian cancer cells or 3,000 fibroblast cells for example were seeded per well onto 96-well plates in 100 μl of the appropriate culture medium. 24 hr after sowing the cells, the media was removed and the cells were treated by adding 100 μl of the compound media solutions at the appropriate concentrations. cis-[Pt(NH3)2(malSAHA−2H)], cisplatin and cis-[Pt(NH3)2(mal)] were prepared freshly in cell culture media. […] The maximum percentage of dmso present in any well was less than 0.1% (v/v). cis-[Pt(NH3)2(malBel—2H)], belinostat and malbelinostat were freshly prepared in dimethyl formamide (DMF) and diluted in culture media prior to the MTS assay. The maximum percentage of DMF present in any well was 0.5% (v/v). A range of concentrations between 1 μM and 100 μM was used.
(§3) After 72 hr of treatment, 20 μl of the MTS reagent was added to each well and the plates incubated for 2 hr at 37° C. […] The percentages of surviving cells relative to untreated controls were determined.

[2] = system: ovarian cancer cell line A2780 P; test: MTS in vitro cytotoxicity, A2780 P; format: cell-based, human; details: 72 hours; for IC50: MTS
Description: (§4) Cells were cultured in the appropriate media. […] In order to retain resistance 1 μM cisplatin was added to the media of the A2780 cisR cells every third passage. A2780 cisR cells are resistant to cisplatin through a combination of decreased uptake, enhanced DNA repair/tolerance, and elevated reduced glutathione levels
as §1, §2, §3

[3] = system: cisplatin resistant ovarian cancer cell line A2780 cisR; test: MTS in vitro cytotoxicity, A2780 cisR; format: cell-based, human; details: 72 hours; for IC50: MTS
Description: as §4, §1, §2, §3

[4] = system: A2780 P (ovarian cancer cells); test: Cellular uptake of Pt (FAAS), A2780 P; format: cell-based, human; details: for Uptake of Pt complexes into A2780 P: 10 μM
Description: Cellular uptake of Pt compounds was measured in SKBR, SW480, A549, A2780P and CH1 cells. […] The cell monolayers at the end of the incubation with the Pt complexes were washed (twice) with ice-cold phosphate buffered saline (PBS), trypsinized and harvested into cold (4° C.) PBS. Cell suspensions were centrifuged and the pellets were stored in PBS at −80° C. until assayed. Afterward, the pellets were digested by high pressure microwave mineralization and Pt content was determined by flameless atomic absorption spectrophotometry (FAAS). The results of cellular Pt uptake were corrected for adsorption effects. All experiments were made in triplicate.^17

[5] = system: A2780 cisR (cisplatin resistant ovarian cancer cells); test: Cellular uptake of Pt (FAAS), A2780 cisR; format: cell-based, human; details: 10 μM, 24 hours treatment
[6] = system: A2780 P cells; test: Morphological analysis (methylene blue/eosin and DAPI staining), A2780 P; format: cell-based, human; details: IC50 and IC75, 72 hr
Description: (§5) Preparations of A2780 P and A2780-cisR cells were exposed to test agents for 72 hr and stained with methylene blue and eosin^19. Drug-treated cells were grown in petri dishes, washed once with PBS, once with PBS:methanol (1:1, v/v), and then fixed in 100% (v/v) methanol for 10 min. Following fixation, cell monolayers were rinsed with anhydrous methanol and stained with methylene blue and eosin for 2 min. Monolayers were then agitated for a further 2 min, destained by rinsing under a gentle stream of water and then finally rinsed with distilled water. Phase contrast microscopy was carried out using a Ceti-phase contrast microscope.
(§6) Drug-treated cells were also stained using a DNA-binding agent commonly used to stain nuclei and visualise nuclear morphology and DNA condensation, namely 4,6-diamidino-2-phenylindole (DAPI). Briefly, a monolayer of drug-treated cells was washed in PBS and fixed with 4% (w/v) paraformaldehyde for 30 min at room temperature. These cells were then permeabilized with 0.2% (v/v) Triton X in PBS and incubated with 1 μg/ml of DAPI for 30 min. Cells were again washed three times with PBS and viewed using a fluorescent microscope with 340/380 nm excitation filter at 250× magnification. Apoptotic cells were confirmed by identification of intensely stained, fragmented nuclei and condensed chromatin.

[7] = system: A2780 cisR cells; test: Morphological analysis (methylene blue/eosin and DAPI staining), A2780 cisR; format: cell-based, human; details: IC50 and IC75, 72 hr
Description: as §5, §6

[8] = system: A2780 P ovarian cancer cells; test: Cell cycle progression, flow cytometry (propidium iodide); format: cell-based, human; details: 72 hr
Description: Both floating and attached cells were collected by centrifugation, washed twice in ice-cold PBS, pH 7.4, harvested by scraping with a rubber policeman, and then collected by centrifugation. The effect of drug treatment on cell cycle progression was determined using flow cytometric analysis according to the method of Nunez (2001).^21 Briefly, cell suspensions were fixed and permeabilised by vigorous addition of nine volumes of ice-cold 70% (v/v) ethanol and stored at −20° C. for a minimum of 24 h, prior to analysis. Cells at a density of approximately 1×10^6 were re-suspended in 800 μl of propidium iodide staining solution (20 μg/ml propidium iodide and 200 μg/ml RNase A in PBS, pH 7.4) and incubated in the dark at room temperature for 30 min. The percentage of cells in the sub-G1, G0/G1, S and G2/M phases of the cell cycle was determined over a range of concentrations and time points, and analysed from at least three independent experiments using Cell Quest™ software (Becton Dickinson).

[9] = Table 5, read-out: IC50 (μM) ± S.E.M. against NHDF
[10] = Table 5, read-out: IC50 (μM) ± S.E.M. against A2780P
[11] = Table 5, read-out: IC50 (μM) ± S.E.M. against A2780CisR
[12] = Table 1, read-out: IC50 values against NHDF
[13] = Table 1, read-out: IC50 values against A2780 P
[14] = Table 1, read-out: IC50 values against A2780cisR

| SMILES | IC50 [1, 9] [µM] | IC50 [2, 10] [µM] | IC50 [3, 11] [µM] | Uptake of Pt complexes into A2780 P ([4]; 24 hours treatment) [pmol Pt/2 × 10^6 cell] | Uptake of Pt complexes into A2780 cisR [5] [pmol Pt/2 × 10^6 cell] | cellular morphology and integrity of DNA [6] | cellular morphology and integrity of DNA [7] | % G0/G1 ± S.E.M. ([8]; concentration equal to IC50) [%] | % G2/M ± S.E.M. ([8]; concentration equal to IC50) [%] | % S ± S.E.M. ([8]; concentration equal to IC50) [%] | % Sub-G1 ± S.E.M. ([8]; concentration equal to IC50) [%] | % G0/G1 ± S.E.M. ([8]; concentration equal to IC75) [%] | % G2/M ± S.E.M. ([8]; concentration equal to IC75) [%] | % S ± S.E.M. ([8]; concentration equal to IC75) [%] | % Sub-G1 ± S.E.M. ([8]; concentration equal to IC75) [%] | IC50 [1, 12] [µM] | IC50 [2, 13] [µM] | IC50 [3, 14] [µM] | Uptake of Pt complexes into A2780 P ([4]; 72 hours treatment) [pmol Pt/2 × 10^6 cell] | also measured |
| --- | --- | --- | --- | --- | --- | --- | --- | --- | --- | --- | --- | --- | --- | --- | --- | --- | --- | --- | --- | --- |
| [NH2][Pt]1([NH2])[O]C(=O)C(Cc2ccc(NS(=O)(=O)c3ccc(/C=C/C(=O)NO)cc3)cc2)C(=O)[O]1 [cis-[Pt(NH3)2(malBel−2H)], cis-[Pt(NH3)2(malBel−2H)].1.5H2O] | 33.9 ± 2 | 7.6 ± 0.3 | 11.7 ± 0.9 | 154 ± 10 | 42.3 ± 5.3 | considerable thinning of the monolayer, attenuation of cells and the nuclei to be intensively stained and fragmented | considerable thinning of the monolayer, attenuation of cells and the nuclei to be intensively stained and fragmented | 16.16 ± 0.88 | 7.91 ± 0.03 | 7.21 ± 0.11 | 60.86 ± 0.26 | 11.75 ± 0.17 | 8.04 ± 0.72 | 5.59 ± 0.36 | 67.67 ± 0.43 |  |  |  |  | selectivity for A2780 P over normal cell line NHDF ([2]; cytotoxicity): displays selectivity for A2780 P cancer cell line over representative normal cell line NHDF; activity against cisplatin resistant A2780 cisR (in words) ([3]; cytotoxicity): retains activity against A2780 cisR cell line; uptake by cancer cells (in words) ([4]; 24 hours treatment, A2780 P and A2780 cisR): is taken up by cancer cells after 24 hours treatment; sub-G1 accumulation (in words) ([8]; A2780 P): dose dependent increase in sub-G1 accumulation compared to control cells |
| [NH2][Pt]1([NH2])[O]C(=O)C(Cc2ccc(NC(=O)CCCCCCC(=O)NO)cc2)C(=O)[O]1 [cis-[Pt(NH3)2(malSAHA−2H)], cis-[Pt(NH3)2(malSAHA−2H)].3H2O] |  |  |  |  |  |  |  |  |  |  |  |  |  |  |  | 83 ± 7.6 | 9 ± 3.1 | 70 ± 3.5 | 5535 ± 865 | selectivity for cancer cell lines over normal cell line NHDF ([1]; cytotoxicity): displays selectivity for cancer cell lines over representative normal cell line NHDF |
| N.N.[Cl][Pt][Cl] [cisplatin, cis-[Pt^II(NH3)2Cl2], reference compound] | 2.4 ± 0.6 | 1.3 ± 0.1 | 9.8 ± 1 | 290 ± 35 | 98 ± 11 | considerable thinning of the monolayer, attenuation of cells and the nuclei to be intensively stained and fragmented | considerable thinning of the monolayer, attenuation of cells and the nuclei to be intensively stained and fragmented | 18.58 ± 0.58 | 5.44 ± 0.04 | 5.33 ± 0.13 | 64.16 ± 0.74 | 20.88 ± 0.14 | 4.73 ± 0.13 | 5.81 ± 0.30 | 61.81 ± 0.39 | 10 ± 1.8 | 2.9 ± 0.1 | 28.5 ± 1.5 | 612.25 ± 107.75 |  |
